# Experiments:
# Assay in all cases: Growth inhibition and biocidal activity evaluation of glycyrrhizic acid hydrogels
# [1] = test system: MRSA; format: cell-based, Methicillin-resistant Staphylococcus aureus; conditions: bactericidal = 3 LOG reduction compared to the inoculum
# Excerpt: Escherichia coli UTI89, Pseudomonas aeruginosa LMG9009, Staphylococcus aureus ATCC6538, Klebsiella pneumoniae ATCC13883, Klebsiella aerogenes ATCC13048, Acinetobacter baumannii RD5SR3. Enterococcus faecalis LMG8148, Streptococcus pyogenes LMG 14237 and clinical isolates of a Staphylococcus epidermidis and a methicillin resistant S. aureus (MRSA), isolated from osteomyelitis patients were used. Prior to the experiments, all strains, except S. pyogenes were inoculated in Lysogeny broth (LB) and incubated overnight on 37° C. (200 rpm). Overnight cultures of S. pyogenes were grown micro-aerophilic in Brain-Heart infusion broth (BHI). Thereafter, the bacteria were normalized to roughly 5*10^5 CFU mL^−1. Lysogeny broth (LB; 10 g L^−1 NaCl, 10 g L^−1 Tryptone, 5 g L^−1 Yeast Extract) was used to create overnight cultures (ONC). […]
# (i) Hydrogel C with pH=3, (ii) Hydrogel B with pH=3.8 and (iii) Hydrogel A with pH=4.2. pH was measured at 70° C. and varied using HCl or NaOH to acidify or alkalify the formulation to the desired pH-value. […]
# To avoid evaporation, the plates were sealed using a membrane (Greiner Bio-one NV). After 24 hours of incubation (37° C., 200 rpm), the OD595 was measured and relative OD595 was calculated by dividing the OD595 by the average OD595 of the growth control (=growth of cells in MHB without glycyrrhizic acid). […]
# [2] = test system: Pseudomonas aeruginosa LMG9009; format: cell-based; conditions: P. aeruginosa; bactericidal = 3 LOG reduction compared to the inoculum
# Excerpt: (§1) Escherichia coli UTI89, Pseudomonas aeruginosa LMG9009, Staphylococcus aureus ATCC6538, Klebsiella pneumoniae ATCC13883, Klebsiella aerogenes ATCC13048, Acinetobacter baumannii RD5SR3. Enterococcus faecalis LMG8148, Streptococcus pyogenes LMG 14237 and clinical isolates of a Staphylococcus epidermidis and a methicillin resistant S. aureus (MRSA), isolated from osteomyelitis patients were used. Prior to the experiments, all strains, except S. pyogenes were inoculated in Lysogeny broth (LB) and incubated overnight on 37° C. (200 rpm). Overnight cultures of S. pyogenes were grown micro-aerophilic in Brain-Heart infusion broth (BHI). Thereafter, the bacteria were normalized to roughly 5*10^5 CFU mL^−1. Lysogeny broth (LB; 10 g L^−1 NaCl, 10 g L^−1 Tryptone, 5 g L^−1 Yeast Extract) was used to create overnight cultures (ONC). Mueller Hinton Broth (MHB; 21 g L^−1 MHB) was used for the minimal inhibitory concentration (MIC) assays for all strain except S. pyogenes. For this strain, BHI was used. If LB agar, BHI agar or MHB agar was needed, 15 g L^−1 of bacteriological agar was added. MHB or BHI batches with varying pH were made by adding HCl or NaOH to acidify or alkalify the medium to the desired pH-value, respectively. Three different formulations of the glycyrrhizic acid hydrogels were made in dH2O:
# (§2) (i) Hydrogel C with pH=3, (ii) Hydrogel B with pH=3.8 and (iii) Hydrogel A with pH=4.2. pH was measured at 70° C. and varied using HCl or NaOH to acidify or alkalify the formulation to the desired pH-value. Moreover, different concentration batches (mass by volume) were used for the hydrogels: 2.5%, 5%, 7,5%, 10%, 15% and 20%. Glycyrrhizic acid in solution—not a hydrogel—was prepared at pH 7,4.
# (§3) To determine the growth inhibiting activity of glycyrrhizic acid in solution, 100 μL of different 1:2 dilutions of a 100 mg/mL stock solution of glycyrrhizic acid in MHB were added to the wells of a 96 well microtiter plate, after which 100 μL of a 5*10^5 CFU mL^−1 bacteria suspension in MHB was added to each well.
# (§4) To determine the growth inhibiting activity of the glycyrrhizic acid hydrogels, the hydrogel was liquefied by heating to 70° C. When liquid, varying volumes of the liquid hydrogel (80 μL to 160 μL) were pipetted into a 96 well microtiter plate. After the hydrogel solidified, 120 μL of a 5*10^5 CFU mL^−1 bacteria suspension in MHB was added on top of the hydrogel.
# (§5) To avoid evaporation, the plates were sealed using a membrane (Greiner Bio-one NV). After 24 hours of incubation (37° C., 200 rpm), the OD595 was measured and relative OD595 was calculated by dividing the OD595 by the average OD595 of the growth control (=growth of cells in MHB without glycyrrhizic acid).
# (§6) To determine the biocidal activity of glycyrrhizic acid in solution and in hydrogel, at the end of the growth inhibition assay (see above), after incubation, 100 μL of the medium on top of the hydrogel was diluted 10 times in Phosphate saline buffer (PBS; 1.24 g L^−1 K2HPO4. 0.39 g L^−1 KH2PO4. 8.8 g L^−1 NaCl) and plated out on MHB agar plates by spreading 100 μL of the dilution. After incubating overnight at 37° C., colonies were counted and the colony forming units were determined.
# [3] = test system: Klebsiella pneumoniae ATCC13883; format: cell-based; conditions: K. pneumoniae; bactericidal = 3 LOG reduction compared to the inoculum
# Excerpt: as §1, §2, §3, §4, §5, §6
# [4] = test system: Escherichia coli UTI89; format: cell-based; conditions: E. coli; bactericidal = 3 LOG reduction compared to the inoculum
# Excerpt: as §1, §2, §3, §4, §5, §6
# [5] = test system: Klebsiella aerogenes ATCC13048; format: cell-based; conditions: K. aerogenes; bactericidal = 3 LOG reduction compared to the inoculum
# Excerpt: as §1, §2, §3, §4, §5, §6
# [6] = test system: Acinetobacter baumannii RD5SR3; format: cell-based; conditions: A. baumannii; bactericidal = 3 LOG reduction compared to the inoculum
# Excerpt: as §1, §2, §3, §4, §5, §6
# [7] = test system: Staphylococcus epidermidis; format: cell-based; conditions: S. epidermidis; bactericidal = 3 LOG reduction compared to the inoculum
# Excerpt: as §1, §2, §3, §4, §5, §6
# [8] = test system: Enterococcus faecalis LMG8148; format: cell-based; conditions: bactericidal = 3 LOG reduction compared to the inoculum
# Excerpt: as §1, §2, §3, §4, §5, §6
# [9] = test system: Streptococcus pyogenes LMG 14237; format: cell-based
# Excerpt: as §1, §2, §3, §4, §5, §6
structure (smiles),measurement,setting,value
"CC1(C)[C@@H](O[C@H]2O[C@H](C(=O)O)[C@@H](O)[C@H](O)[C@H]2O[C@@H]2O[C@H](C(=O)O)[C@@H](O)[C@H](O)[C@H]2O)CC[C@]2(C)[C@H]3C(=O)C=C4[C@@H]5C[C@@](C)(C(=O)O)CC[C@]5(C)CC[C@@]4(C)[C@]3(C)CC[C@@H]12 [GLY in solution, glycyrrhizic acid]","antibacterial effect (no effect, bacteriostatic, bactericidal)",[1],No effect
same,"antibacterial effect (no effect, bacteriostatic, bactericidal)",[2],No effect
same,"antibacterial effect (no effect, bacteriostatic, bactericidal)",[3],No effect
same,"antibacterial effect (no effect, bacteriostatic, bactericidal)",[4],No effect
same,"antibacterial effect (no effect, bacteriostatic, bactericidal)",[5],No effect
same,"antibacterial effect (no effect, bacteriostatic, bactericidal)",[6],No effect
same,"antibacterial effect (no effect, bacteriostatic, bactericidal)",[7],No effect
same,"antibacterial effect (no effect, bacteriostatic, bactericidal)",[8],No effect
same,growth inhibition,"[9]; 50 mg/mL in solution, pH 7.0, only one of nine pathogens tested that was inhibited",inhibited
same,"antibacterial effect (no effect, bacteriostatic, bactericidal)","[9]; Streptococcus, bactericidal = 3 LOG reduction compared to the inoculum",Bacteriostatic

# Reference: patent publication US20260284091A1, “IMIDAZOLE LOADED GLYCYRRHIZIC ACID HYDROGELS” (KATHOLIEKE UNIVERSITEIT LEUVEN, priority 2023, published 2026)
